{"source": "patent US10647680B2", "about": "“Urea compound, preparation method therefor and medical use thereof” (Ancureall Pharmaceutical (Shanghai) Co., Ltd., priority 2016, dated 2020)", "key": {"[1]": {"assay": "Long-term oral toxicity in mice, effect on blood cells", "assay_type": "in vivo, mouse", "conditions": "ICR mice; for mortality rate / weight reduced compared with the control group: oral once a day, to the 40th day", "procedure": "Study on the long-term oral toxicity in mice was performed with compound 77 of the present invention as a representative example.\nProcedure: 6-week-old ICR mice purchased from Shanghai Sippr-BK Experimental Animal Co., Ltd. were selected with half males and half females, and the animals were randomly divided with 6 mice each group. The test and control groups were orally given once a day for 40 consecutive days, respectively. The body weight and physiological and pathological features of the mice were observed and recorded every day. The drug doses of the test group were 500 mg/kg, 350 mg/kg, and 250 mg/kg of the methanesulfonate of compound 77 in 20% HP-β-CD clear aqueous solution, respectively (the formulation method was the same as that of the test example 10), and the control group was the 20% HP-β-CD aqueous solution."}, "[2]": {"molecular_target": "T1, hERG potassium ion channel (Homo sapiens, UniProt Q12809)", "T1 construct": "host or cells: HEK-293", "T1 sequence (Q12809 whole entry)": "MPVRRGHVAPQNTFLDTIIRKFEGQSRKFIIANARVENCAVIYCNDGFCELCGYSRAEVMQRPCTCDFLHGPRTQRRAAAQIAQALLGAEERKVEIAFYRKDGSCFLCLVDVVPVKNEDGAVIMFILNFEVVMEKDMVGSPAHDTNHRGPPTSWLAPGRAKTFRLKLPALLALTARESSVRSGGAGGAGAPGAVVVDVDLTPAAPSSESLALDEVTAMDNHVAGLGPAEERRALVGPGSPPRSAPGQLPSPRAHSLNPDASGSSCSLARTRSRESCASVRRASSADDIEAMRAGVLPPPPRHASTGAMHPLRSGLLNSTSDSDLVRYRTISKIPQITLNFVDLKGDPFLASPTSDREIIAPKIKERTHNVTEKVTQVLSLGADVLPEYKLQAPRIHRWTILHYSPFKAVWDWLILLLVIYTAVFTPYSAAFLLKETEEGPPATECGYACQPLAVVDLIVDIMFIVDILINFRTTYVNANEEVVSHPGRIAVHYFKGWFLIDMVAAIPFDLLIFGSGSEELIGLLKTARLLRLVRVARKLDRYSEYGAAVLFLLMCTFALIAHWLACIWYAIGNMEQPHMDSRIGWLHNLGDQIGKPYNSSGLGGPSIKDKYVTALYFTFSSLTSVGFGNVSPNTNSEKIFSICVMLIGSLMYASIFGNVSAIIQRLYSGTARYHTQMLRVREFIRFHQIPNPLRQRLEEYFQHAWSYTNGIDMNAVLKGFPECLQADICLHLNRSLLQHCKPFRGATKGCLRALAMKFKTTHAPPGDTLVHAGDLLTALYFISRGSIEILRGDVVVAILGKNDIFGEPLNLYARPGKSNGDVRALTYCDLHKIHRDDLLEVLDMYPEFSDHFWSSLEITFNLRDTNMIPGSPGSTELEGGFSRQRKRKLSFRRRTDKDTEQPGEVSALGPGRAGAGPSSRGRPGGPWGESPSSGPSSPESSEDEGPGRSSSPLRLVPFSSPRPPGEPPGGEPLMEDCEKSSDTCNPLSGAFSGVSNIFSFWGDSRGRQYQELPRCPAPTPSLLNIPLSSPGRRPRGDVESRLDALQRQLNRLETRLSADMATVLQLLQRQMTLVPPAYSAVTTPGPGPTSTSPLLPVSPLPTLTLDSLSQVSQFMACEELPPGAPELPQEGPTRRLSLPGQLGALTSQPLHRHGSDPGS", "assay": "hERG test (whole cell model)", "assay_type": "cell-based", "conditions": "for Ratio (%): n=3", "procedure": "The whole cell model hERG test was performed with compound 77 of the present invention as a representative example, 30 uM Quinidine (Sigma) was used as a positive control.\nProcedure: hERG potassium ion channel HEK-293 cells (Krius Biology) were over-expressed, and cultured at a 37° C., 5% CO2 incubator. The culture medium was DMEM supplemented with 15% fetal bovine serum and 1% penicillin-streptomycin. The stably transfected cells were inoculated to slides, with a cell density of less than 50%, and cultured overnight. The experimental cells were transferred to an approximately 1 mL bath tank embedded in an inverted microscope platform (Diaphot, Nikon), and the extracellular fluid was perfused at a perfusion rate of 2.7 mL/min. The experiment could be started after stabilization for 5 minutes and precipitation of cells. Membrane current was recorded by HEKAEPC-10 patch clamp amplifier and […] acquisition system (HEKA Instruments Inc., D-67466 Lambrecht/Pfalz Germany). All experiments were completed at room temperature (22-24° C.). During the experiment, a P-97 microelectrode control apparatus (Sutter Instrument Company, One Digital Drive, Novato, Calif. 94949) was used to […] the electrodes (BF150-110-10). The inner diameter of the electrode was 1-1.5 mm, and the inlet resistance after filling with the liquid was 2-4 MQ. Electrophysiological stimulation of the hERG potassium channel: firstly, the membrane voltage was clamped at −80 mV, and cells were given continuous stimulation of 2 s, +20 mV voltage, to activate hERG potassium ion channel and repolarization to −50 mV for 5 s, to generate outward tail current. The stimulation frequency was once every 15 seconds. The current value was the peak value of tail current. By measuring the maximum current value of the treatment group and the control group, the ratio of the maximum current value of the treatment group to the maximum current value of the control group (Mean±SE) was calculated, to evaluate the effect of the test compounds on the hERG potassium ion channel under the test concentration. Statistics and analysis of experimental data were performed by Origin 8.5 (OriginLab Corporation, Northampton, Mass.)."}, "[3]": {"conditions": "oral once a day for 40 days, 250-500 mg/kg"}}, "note": "Structures can show the parent of a compound that is named as a salt.", "data": [{"compound": "COCCOc1ccc2c(c1)ncn2-c1ccc(NC(=O)Nc2cc(C(C)(C)C)n[nH]2)cc1", "note": "[Compound 77 Mesylate, 1-(5-tert-butyl-2H-pyrazol-3-yl)-3-{4-[5-(2-methoxyl-ethoxyl)-benzimidazol-1-yl]-phenyl}-urea]", "values": [{"measurement": "effect on the number of other blood cells", "setting": "[1]; [3]", "value": "no significant effect"}, {"measurement": "reticulocytes decreased by", "setting": "[1]; [3]", "value": "10%-30%"}, {"measurement": "mortality rate", "setting": "[1]; 250 mg/kg", "value": 0, "unit": "%"}, {"measurement": "weight reduced compared with the control group", "setting": "[1]; 250 mg/kg", "value": 8.2, "unit": "%"}, {"measurement": "mortality rate", "setting": "[1]; 350 mg/kg", "value": 16.7, "unit": "%"}, {"measurement": "weight reduced compared with the control group", "setting": "[1]; 350 mg/kg", "value": 23.1, "unit": "%"}, {"measurement": "mortality rate", "setting": "[1]; 500 mg/kg", "value": 66.7, "unit": "%"}, {"measurement": "weight reduced compared with the control group", "setting": "[1]; 500 mg/kg", "value": 34.7, "unit": "%"}]}, {"compound": "COCCOc1ccc2c(c1)ncn2-c1ccc(NC(=O)Nc2cc(C(C)(C)C)n[nH]2)cc1", "note": "[Compound 77, 1-(5-tert-butyl-2H-pyrazol-3-yl)-3-{4-[5-(2-methoxyl-ethoxyl)-benzimidazol-1-yl]-phenyl}-urea]", "values": [{"measurement": "Ratio (%)", "setting": "[2]; Concentration 0.3 uM", "value": 94.96, "unit": "%"}, {"measurement": "Ratio (%)", "setting": "[2]; Concentration 1 uM", "value": 86.71, "unit": "%"}, {"measurement": "Ratio (%)", "setting": "[2]; Concentration 3 uM", "value": 75.85, "unit": "%"}, {"measurement": "Ratio (%)", "setting": "[2]; Concentration 10 uM", "value": 53.71, "unit": "%"}, {"measurement": "Ratio (%)", "setting": "[2]; Concentration 30 uM", "value": 37.47, "unit": "%"}, {"measurement": "blocking effect on the hERG potassium ion channel", "setting": "[2]; within the range of test concentrations", "value": "a certain blocking effect"}]}]}
